Measured values as given in article PMC5879128, “Combined in Vitro and in Silico Studies for the Anticholinesterase Activity and Pharmacokinetics of Coumarinyl Thiazoles and Oxadiazoles” (Frontiers in Chemistry, 2018).
Like-named read-outs stand apart in the source and are kept apart here.

Experiments:
BuChE = molecular target: T1, BuChE (Equus caballus, UniProt P81908); assay: biochemical; format: biochemical; conditions: for Selectivity for BuChE: ratio of IC50 values, AChE over BuChE
T1 construct: electric eel, and horse serum were used as source of AChE and BuChE, respectively; from tissue; host or cells: horse serum
T1 sequence (P81908 whole entry): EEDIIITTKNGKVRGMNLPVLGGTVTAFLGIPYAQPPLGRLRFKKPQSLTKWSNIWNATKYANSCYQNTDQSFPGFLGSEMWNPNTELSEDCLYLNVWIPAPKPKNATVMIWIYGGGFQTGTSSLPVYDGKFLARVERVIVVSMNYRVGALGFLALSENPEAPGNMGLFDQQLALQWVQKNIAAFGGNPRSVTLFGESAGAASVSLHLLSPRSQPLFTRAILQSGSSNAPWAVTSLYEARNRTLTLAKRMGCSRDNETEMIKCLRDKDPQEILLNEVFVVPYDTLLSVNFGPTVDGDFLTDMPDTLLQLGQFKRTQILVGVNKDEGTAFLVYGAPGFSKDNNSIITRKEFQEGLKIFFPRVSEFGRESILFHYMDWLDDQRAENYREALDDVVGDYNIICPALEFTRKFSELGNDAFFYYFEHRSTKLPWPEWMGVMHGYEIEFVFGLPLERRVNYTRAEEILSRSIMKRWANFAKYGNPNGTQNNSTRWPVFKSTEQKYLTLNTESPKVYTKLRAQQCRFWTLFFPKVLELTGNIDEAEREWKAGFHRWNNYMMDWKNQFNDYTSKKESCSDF
Experimental: (§1) The target compounds, coumarinyl thiazoles 6(a–o) and coumarinyl oxadiazoles 11(a–h), were screened for their inhibitory activity against AChE and BuChE by Ellman's method.
(§2) For the determination of cholinesterase inhibition, electric eel, and horse serum were used as source of AChE and BuChE, respectively. […] The compounds with 1 Mm concentration were prepared in DMSO. Assay was carried out in 96 well-plate in triplicates. The reaction mixture comprised of 20 μL of buffer (tris HCl 50 mM, 0.02 M MgCl2.6H2O, 0.1 mM NaCl) at pH 8, 10 μL of the test compound, 10 μL enzyme acetylcholine or butyrylcholinesterase of 0.03 U/mL (500 U of AChE and 700 U/mg of BuChE). The contents were incubated for 10 min at 25°C followed by the addition of 1 mM of 10 μL of substrate […] for AChE and butyrylthiocholine iodide for BuChE and incubated again at 25°C for 15 min. A 50 μL of 3 mM DTNB as a coloring agent was added and incubated at 25°C for further 10 min. […] The enzyme dilutions were made by using buffer of pH 8 (tris base 50 mM and having 0.1% BSA).

AChE = molecular target: T2, AChE (Electrophorus electricus, UniProt O42275); assay: biochemical; format: biochemical; conditions: for IC50: electric eel AChE, Ellman's method, SEM of three experiments; for Selectivity for AChE: ratio of IC50 values, BuChE over AChE; for fold stronger AChE inhibition than the standard neostigmine: relative to neostigmine
T2 construct: electric eel, and horse serum were used as source of AChE and BuChE, respectively; from tissue; host or cells: electric eel
T2 sequence (O42275 24-633): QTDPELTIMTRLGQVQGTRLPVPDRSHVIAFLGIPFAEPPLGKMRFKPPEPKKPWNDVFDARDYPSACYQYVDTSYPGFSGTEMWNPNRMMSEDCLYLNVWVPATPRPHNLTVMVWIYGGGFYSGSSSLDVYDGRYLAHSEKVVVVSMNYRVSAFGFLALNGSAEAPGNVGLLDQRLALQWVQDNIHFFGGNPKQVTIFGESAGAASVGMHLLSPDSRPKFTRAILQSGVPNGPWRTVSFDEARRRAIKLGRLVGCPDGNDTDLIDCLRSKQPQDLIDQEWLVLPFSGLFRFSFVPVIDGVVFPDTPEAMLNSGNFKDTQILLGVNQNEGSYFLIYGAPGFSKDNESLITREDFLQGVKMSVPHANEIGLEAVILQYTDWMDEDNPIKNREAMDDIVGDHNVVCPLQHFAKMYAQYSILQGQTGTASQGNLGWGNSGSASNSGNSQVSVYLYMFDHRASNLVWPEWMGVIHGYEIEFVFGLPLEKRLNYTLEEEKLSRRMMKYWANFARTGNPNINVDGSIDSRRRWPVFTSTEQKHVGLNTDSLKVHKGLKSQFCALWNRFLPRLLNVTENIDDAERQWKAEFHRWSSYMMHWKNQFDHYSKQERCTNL
Experimental: as §1, §2

[1] = horse serum BuChE, Ellman's method, SEM of three experiments, read-out: BuChE IC50 (μM) ± SEM

Row | Structure (SMILES) | IC50 (BuChE; [1]) [µM] | Selectivity for BuChE (BuChE) | IC50 (AChE) [µM] | Selectivity for AChE (AChE) | fold stronger AChE inhibition than the standard neostigmine (AChE) | BuChE inhibition, in words (BuChE) | fold more potent against BuChE than neostigmine (BuChE; relative to neostigmine) | AChE inhibition, in words (AChE) | IC50 (BuChE) [µM]
1 | C/C(=N\Nc1nc(-c2cc3ccccc3oc2=O)cs1)c1ccccc1 [Compound 6a] | 32.7 ± 2.08 | 0.51 | 16.9 ± 0.32 | 1.93 | – | – | – | – | –
2 | CC(=NNc1nc(-c2cc3ccccc3oc2=O)cs1)c1cccc(N)c1 [Compound 6b] | 31.22 ± 0.17 | 0.027 | 0.87 ± 0.09 | 35.8 | ~ 32 fold | – | – | – | –
3 | C/C(=N\Nc1nc(-c2cc3ccccc3oc2=O)cs1)c1ccccc1Br [Compound 6c] | 19.3 ± 1.42 | 1.09 | 21.2 ± 0.23 | 0.91 | – | – | – | – | –
4 | C/C(=N\Nc1nc(-c2cc3ccccc3oc2=O)cs1)c1cccc(Br)c1 [Compound 6d] | 15.2 ± 0.53 | 1.98 | 30.1 ± 1.73 | 0.50 | – | moderate inhibitors | – | – | –
5 | C/C(=N\Nc1nc(-c2cc3ccccc3oc2=O)cs1)c1ccc(Br)cc1 [Compound 6e] | 49.12 ± 0.12 | 0.68 | 33.42 ± 0.18 | 1.47 | – | – | – | – | –
6 | C/C(=N\Nc1nc(-c2cc3ccccc3oc2=O)cs1)c1ccccc1F [Compound 6f] | 32.1 ± 1.21 | 0.71 | 23.1 ± 0.32 | 1.39 | – | – | – | – | –
7 | C/C(=N\Nc1nc(-c2cc3ccccc3oc2=O)cs1)c1ccc(F)cc1 [Compound 6g] | 28.01 ± 0.21 | 1.29 | 36.34 ± 0.18 | 0.77 | – | – | – | – | –
8 | COc1ccc(C(C)=NNc2nc(-c3cc4ccccc4oc3=O)cs2)cc1 [Compound 6h] | 19.32 ± 0.11 | 0.055 | 1.08 ± 0.84 | 17.8 | 26 fold | moderate inhibitors | – | – | –
9 | COc1ccc(/C(C)=N/Nc2nc(-c3cc4ccccc4oc3=O)cs2)cc1F [Compound 6i] | 22.1 ± 1.08 | 0.105 | 2.34 ± 1.43 | 9.44 | – | – | – | – | –
10 | COc1ccc(/C(C)=N/Nc2nc(-c3cc4ccccc4oc3=O)cs2)c(O)c1 [Compound 6j] | 11 ± 3.37 | 0.81 | 9.05 ± 0.23 | 1.22 | – | – | – | – | –
11 | COc1cc(C(C)=NNc2nc(-c3cc4ccccc4oc3=O)cs2)ccc1O [Compound 6k] | 19.1 ± 1.32 | 0.303 | 5.86 ± 0.15 | 3.29 | – | – | – | – | –
12 | COc1ccc(/C(C)=N/Nc2nc(-c3cc4ccccc4oc3=O)cs2)cc1I [Compound 6l] | 32.1 ± 1.08 | 0.42 | 13.8 ± 1.58 | 2.32 | – | – | – | – | –
13 | C/C(=N\Nc1nc(-c2cc3ccccc3oc2=O)cs1)c1ccc(Cl)cc1N [Compound 6m] | 37.2 ± 0.55 | 0.61 | 22.74 ± 0.16 | 1.63 | – | – | – | – | –
14 | O=c1oc2ccccc2cc1-c1csc(NN=C(c2ccccc2)c2ccccc2)n1 [Compound 6n] | 21.6 ± 3.09 | 0.51 | 11.2 ± 0.17 | 1.94 | – | – | – | – | –
15 | C/C(=N\Nc1nc(-c2cc3ccccc3oc2=O)cs1)c1cc2ccccc2oc1=O [Compound 6o] | 23.2 ± 0.29 | 0.43 | 10.1 ± 1.12 | 2.28 | – | – | – | – | –
16 | CNCn1nc(-c2cc3ccccc3oc2=O)oc1=S [Compound 11a] | 0.341 ± 0.06 | 17.8 | 6.07 ± 0.23 | 0.056 | – | – | – | – | –
17 | CCCCNCn1nc(-c2cc3ccccc3oc2=O)oc1=S [Compound 11b] | 0.77 ± 0.08 | 12.2 | 9.41 ± 0.55 | 0.081 | – | – | – | – | –
18 | Cc1ccc(NCn2nc(-c3cc4ccccc4oc3=O)oc2=S)cc1 [Compound 11c] | 8.01 ± 3.58 | 2.97 | 23.8 ± 0.94 | 0.33 | – | – | – | – | –
19 | O=c1oc2ccccc2cc1-c1nn(CNc2ccccc2Cl)c(=S)o1 [Compound 11d] | 3.48 ± 1.58 | 4.77 | 16.6 ± 2.72 | 0.20 | – | – | – | – | –
20 | O=c1oc2ccccc2cc1-c1nn(CNc2cccc(Cl)c2)c(=S)o1 [Compound 11e] | 0.15 ± 0.09 | 82.6 | 12.4 ± 0.08 | 0.012 | – | – | about 107 fold | – | –
21 | O=c1oc2ccccc2cc1-c1nn(CNc2ccc(Cl)cc2)c(=S)o1 [Compound 11f] | 12.1 ± 1.08 | 1.53 | 18.6 ± 0.32 | 0.65 | – | – | – | – | –
22 | O=c1oc2ccccc2cc1-c1nn(CN(c2ccccc2)c2ccccc2)c(=S)o1 [Compound 11g] | 4.54 ± 0.54 | 2.10 | 9.57 ± 1.42 | 0.47 | – | – | – | moderate inhibitors | –
23 | O=c1oc2ccccc2cc1-c1nn(CN2CCOCC2)c(=S)o1 [Compound 11h] | 13.5 ± 0.41 | 0.91 | 12.2 ± 1.67 | 1.09 | – | – | – | moderate inhibitors | –
24 | CN(C)C(=O)Oc1cccc([N+](C)(C)C)c1 [Neostigmine, reference compound] | – | 1.75 | 28.2 ± 2.01 | 0.57 | – | – | – | – | 16.1 ± 1.13
